Holding throughout (type): in vivo
The subject of experiment [1] is Amaranthus retoflexus (AMARE). The experiment can be described thus: Post-emergence herbicidal test. As to conditions: 1000 g/ha unless otherwise stated, evaluated after 13 days. The protocol:
(§1) Seeds of a variety of test species are sown in standard soil in pots (Amaranthus retoflexus (AMARE), Solanum nigrum (SOLNI), Setaria faberi (SETFA), Lolium perenne (LOLPE), Echinochloa crus-galli (ECHCG), Ipomoea hederacea (IPOHE)). After 8 days cultivation under controlled conditions in a glasshouse (at 24° C./16° C., day/night; 14 hours light; 65% humidity), the plants are sprayed with an aqueous spray solution derived from the formulation of the technical active ingredient in acetone/water (50:50) solution containing 0.5% Tween 20 (polyoxyethelyene sorbitan monolaurate, CAS RN 9005-64-5). Compounds are applied at 1000 g/ha unless otherwise stated. The test plants are then grown in a glasshouse under controlled conditions in a glasshouse (at 24° C./16° C., day/night; 14 hours light; 65% humidity) and watered twice daily. After 13 days the test is evaluated for the percentage damage caused to the plant. The biological activities are shown in the following table on a five-point scale (5=81-100%; 4=61-80%; 3=41-60%; 2=21-40%; 1=0-20%).

In experiment [2] the test system is Echinochloa crus-galli (ECHCG). The experiment can be described thus: Post-emergence herbicidal test. The following applies: 1000 g/ha unless otherwise stated, evaluated after 13 days. The protocol: as §1
In experiment [3] the test system is Ipomoea hederacea (IPOHE). As to the kind of experiment: Post-emergence herbicidal test. As to conditions: 1000 g/ha unless otherwise stated, evaluated after 13 days. The procedure:
as §1

For experiment [4], the system named is Lolium perenne (LOLPE). The experiment can be described thus: Post-emergence herbicidal test. The following applies: 1000 g/ha unless otherwise stated, evaluated after 13 days. The protocol: as §1
Experiment [5] has as its system Setaria faberi (SETFA). As to the kind of experiment: Post-emergence herbicidal test. The following applies: 1000 g/ha unless otherwise stated, evaluated after 13 days. The protocol: as §1
Experiment [6] has as its system Solanum nigrum (SOLNI). The experiment can be described thus: Post-emergence herbicidal test. The following applies: 1000 g/ha unless otherwise stated, evaluated after 13 days. The procedure: as §1
For experiment [7], the system named is Amaranthus retoflexus (AMARE). As to the kind of experiment: Pre-emergence herbicidal test. As to conditions: 1000 g/ha unless otherwise stated.
Experiment [8] has as its system Solanum nigrum (SOLNI). As to the kind of experiment: Pre-emergence herbicidal test. The following applies: 1000 g/ha unless otherwise stated.
Experiment [9] deals with Setaria faberi (SETFA). As to the kind of experiment: Pre-emergence herbicidal test. As to conditions: 1000 g/ha unless otherwise stated.
In experiment [10] the test system is Lolium perenne (LOLPE). The experiment can be described thus: Pre-emergence herbicidal test. The following applies: 1000 g/ha unless otherwise stated.
For experiment [11], the system named is Echinochloa crus-galli (ECHCG). As to the kind of experiment: Pre-emergence herbicidal test. The following applies: 1000 g/ha unless otherwise stated.
The subject of experiment [12] is Ipomoea hederacea (IPOHE). As to the kind of experiment: Pre-emergence herbicidal test. As to conditions: 1000 g/ha unless otherwise stated.

Molecules are shown by their SMILES.

As to `C=Cc1c(C)n(CC)c(-c2ccc(Cl)c(Cl)c2)c(C(=O)O)c1=O` [Compound 2.001, 2-(3,4-dichlorophenyl)-1-ethyl-6-methyl-4-oxo-5-vinyl-pyridine-3-carboxylic acid], the “percentage damage caused to the plant, AMARE (five-point scale)” value in [1] and in experiment [7] was 1 (1=0-20%) in each case. Also, the “percentage damage caused to the plant, ECHCG (five-point scale)” value in [2] is 2 (2=21-40%); in experiment [11], 3 (3=41-60%). In addition, the “percentage damage caused to the plant, IPOHE (five-point scale)” value in experiment [3] is on record as 4 (4=61-80%); in experiment [12] it was 3 (3=41-60%). The “percentage damage caused to the plant, LOLPE (five-point scale)” value in the experiment with Lolium perenne (LOLPE) [4] and with Lolium perenne (LOLPE) [10] was 4 (4=61-80%) in each case. Further, the “percentage damage caused to the plant, SETFA (five-point scale)” value with Setaria faberi (SETFA) [5] and in the experiment with Setaria faberi (SETFA) [9] was 4 (4=61-80%) throughout. For the same compound, the “percentage damage caused to the plant, SOLNI (five-point scale)” value in the experiment on Solanum nigrum (SOLNI) [6] and in the experiment on Solanum nigrum (SOLNI) [8] was 1 (1=0-20%) each time.
Turning to `C=Cc1c(C)n(CC)c(-c2ccc(Cl)c(Cl)c2)c(C(=O)OC)c1=O` [Compound 4.001, methyl 2-(3,4-dichlorophenyl)-1-ethyl-6-methyl-4-oxo-5-vinyl-pyridine-3-carboxylate], the “percentage damage caused to the plant, AMARE (five-point scale)” value in experiment [1] and in experiment [7] was 1 (1=0-20%) throughout. In addition, the “percentage damage caused to the plant, ECHCG (five-point scale)” value in experiment [2] and in experiment [11] was 1 (1=0-20%) throughout. For the same compound, the “percentage damage caused to the plant, IPOHE (five-point scale)” value in experiment [3] was 2 (2=21-40%); in [12], 1 (1=0-20%). Moreover, the “percentage damage caused to the plant, LOLPE (five-point scale)” value in the experiment on Lolium perenne (LOLPE) [4] is reported as 4 (4=61-80%); with Lolium perenne (LOLPE) [10], 1 (1=0-20%). The “percentage damage caused to the plant, SETFA (five-point scale)” value in the experiment with Setaria faberi (SETFA) [5] is 4 (4=61-80%); in the experiment on Setaria faberi (SETFA) [9] it was 1 (1=0-20%). For the same compound, the “percentage damage caused to the plant, SOLNI (five-point scale)” value in the experiment on Solanum nigrum (SOLNI) [6] and in the experiment on Solanum nigrum (SOLNI) [8] was 1 (1=0-20%) throughout.
`CCn1c(C)c(C(C)=O)c(=O)c(C(=O)O)c1-c1ccc(Cl)c(Cl)c1` [Compound 2.008, 5-acetyl-2-(3,4-dichlorophenyl)-1-ethyl-6-methyl-4-oxo-pyridine-3-carboxylic acid]: the results for the “percentage damage caused to the plant, AMARE (five-point scale)” value in [1] and in experiment [7] were 2 (2=21-40%) and 1 (1=0-20%), respectively. Besides, the “percentage damage caused to the plant, ECHCG (five-point scale)” value in experiment [2] and in experiment [11] was 3 (3=41-60%) each time. Besides, the “percentage damage caused to the plant, IPOHE (five-point scale)” value in experiment [3] is given as 2 (2=21-40%); in experiment [12] it was 3 (3=41-60%). Further, the “percentage damage caused to the plant, LOLPE (five-point scale)” value in the experiment with Lolium perenne (LOLPE) [4] is given as 5 (5=81-100%); in the experiment with Lolium perenne (LOLPE) [10], 4 (4=61-80%). Further, the “percentage damage caused to the plant, SETFA (five-point scale)” value was 3 (3=41-60%) with Setaria faberi (SETFA) [5] and 5 (5=81-100%) with Setaria faberi (SETFA) [9]. Also, the “percentage damage caused to the plant, SOLNI (five-point scale)” value in the experiment on Solanum nigrum (SOLNI) [6] is reported as 2 (2=21-40%); with Solanum nigrum (SOLNI) [8], 3 (3=41-60%).
For the compound `CCn1c(C)c(C(=O)O)c(=O)c(C(=O)O)c1-c1ccc(Cl)c(Cl)c1` [Compound 2.010, 2-(3,4-dichlorophenyl)-1-ethyl-6-methyl-4-oxo-pyridine-3,5-dicarboxylic acid], the “percentage damage caused to the plant, AMARE (five-point scale)” value in experiment [1] is reported as 2 (2=21-40%); in experiment [7] it was 1 (1=0-20%). For the same compound, the “percentage damage caused to the plant, ECHCG (five-point scale)” value in experiment [2] and in experiment [11] was 1 (1=0-20%) throughout. Also, the “percentage damage caused to the plant, IPOHE (five-point scale)” value is recorded as 2 (2=21-40%) in experiment [3] and 1 (1=0-20%) in experiment [12]. For the same compound, the “percentage damage caused to the plant, LOLPE (five-point scale)” value in the experiment with Lolium perenne (LOLPE) [4] was 1 (1=0-20%); with Lolium perenne (LOLPE) [10], 2 (2=21-40%). Further, the “percentage damage caused to the plant, SETFA (five-point scale)” value in the experiment with Setaria faberi (SETFA) [5] and in the experiment on Setaria faberi (SETFA) [9] was 1 (1=0-20%) in each case. The “percentage damage caused to the plant, SOLNI (five-point scale)” value is 2 (2=21-40%) in the experiment with Solanum nigrum (SOLNI) [6] and 3 (3=41-60%) with Solanum nigrum (SOLNI) [8].
For the compound `C#Cc1c(C)n(CC)c(-c2ccc(Cl)c(Cl)c2)c(C(=O)O)c1=O` [Compound 2.005, 2-(3,4-dichlorophenyl)-1-ethyl-5-ethynyl-6-methyl-4-oxo-pyridine-3-carboxylic acid], the “percentage damage caused to the plant, AMARE (five-point scale)” value in experiment [1] is reported as 5 (5=81-100%); in [7] it was 1 (1=0-20%). Besides, the results for the “percentage damage caused to the plant, ECHCG (five-point scale)” value in experiment [2] and in [11] were 3 (3=41-60%) and 1 (1=0-20%), respectively. The “percentage damage caused to the plant, IPOHE (five-point scale)” value in experiment [3] and in [12] was 4 (4=61-80%) each time. The “percentage damage caused to the plant, LOLPE (five-point scale)” value with Lolium perenne (LOLPE) [4] was 5 (5=81-100%); with Lolium perenne (LOLPE) [10], 1 (1=0-20%). Also, the “percentage damage caused to the plant, SETFA (five-point scale)” value in the experiment on Setaria faberi (SETFA) [5] is on record as 5 (5=81-100%); with Setaria faberi (SETFA) [9], 4 (4=61-80%). The “percentage damage caused to the plant, SOLNI (five-point scale)” value in the experiment with Solanum nigrum (SOLNI) [6] and with Solanum nigrum (SOLNI) [8] was 4 (4=61-80%) throughout.
